According to ChEMBL document CHEMBL4118077, “Synthesis of thiazole linked indolyl-3-glyoxylamide derivatives as tubulin polymerization inhibitors” (Eur J Med Chem, 2017):
pIC50: −log10 of the molar value.

Assays:
DU-145 = experiment: Antiproliferative activity against human DU145 cells after 48 hrs by MTT assay; assay type: functional, cell-based; settings: DU-145, 48 h
PC-3 = experiment: Antiproliferative activity against human PC3 cells after 48 hrs by MTT assay; assay type: functional, cell-based; settings: PC-3, 48 h
A549 = experiment: Antiproliferative activity against human A549 cells after 48 hrs by MTT assay; assay type: functional, cell-based; settings: A549, 48 h
HCT-15 = experiment: Antiproliferative activity against human HCT15 cells after 48 hrs by MTT assay; assay type: functional, cell-based; settings: HCT-15, 48 h
Sus scrofa = species on record: Sus scrofa; experiment: Inhibition of porcine brain tubulin polymerization at 5 uM measured for 1 hr by fluorescence assay relative to control

SMILES	pIC50 (DU-145)	pIC50 (PC-3)	pIC50 (A549)	pIC50 (HCT-15)	inhibition (Sus scrofa) [%]
O=C(Cn1cc(C(=O)C(=O)N2CCCCC2)c2ccccc21)Nc1nc(-c2ccccc2)cs1	4.60	< 4.30	< 4.30	< 4.30	
CCOC(=O)c1nc(NC(=O)CCn2cc(C(=O)C(=O)N3CCCCC3)c3ccccc32)sc1C	< 4.30	< 4.30	< 4.30	< 4.30	12.2
Cc1ccc(-c2csc(NC(=O)CCn3cc(C(=O)C(=O)N4CCCCC4)c4ccccc43)n2)cc1	< 4.30	< 4.30	< 4.30	< 4.30	
O=C(Cn1cc(C(=O)C(=O)Nc2ccccc2)c2ccccc21)Nc1nc(-c2ccccc2)cs1	4.46	< 4.30	< 4.30	< 4.30	
COc1ccc2sc(NC(=O)CCn3cc(C(=O)C(=O)N4CCCCC4)c4ccccc43)nc2c1	4.91	4.81	< 4.30	< 4.30	
COc1cc([C@@H]2c3cc4c(cc3[C@H](O)[C@H]3COC(=O)[C@H]23)OCO4)cc(OC)c1OC					78
O=C(Cn1cc(C(=O)C(=O)NC2CC2)c2ccccc21)Nc1nccs1	< 4.30	< 4.30	< 4.30		
O=C(Cn1cc(C(=O)C(=O)NC2CC2)c2ccccc21)Nc1nc(-c2ccccc2)cs1	< 4.30	< 4.30	4.38		
O=C(CCn1cc(C(=O)C(=O)N2CCCCC2)c2ccccc21)Nc1nc(-c2ccccc2)cs1	< 4.30	< 4.30	< 4.30	< 4.30	
Cc1ccc(-c2csc(NC(=O)Cn3cc(C(=O)C(=O)Nc4ccccc4)c4cc(Br)ccc43)n2)cc1	4.99	< 4.30	< 4.30	< 4.30	
